Read-outs that look alike come from different tables or passages of the source. Values belong to the compound of their own block, whether it stands above or below them.
Tests used:
[1] = Surface tension of water solutions towards air, ASTM D-971; format: physicochemical; details: 25°
Description: (§1) To obtain standard data for estimating the surface activity of quaternary higher dialkyl phosphonium salts, the surface tensions of their water solutions and the interfacial tensions of their equilibriated solutions in water and a paraffinic hydrocarbon were determined as described by ASTM D-971-50.
(§2) Didodecyl dimethyl phosphonium chloride and, for comparison, octadecyl trimethyl phosphonium chloride were tested as described above, according to ASTM D-971. The surface tension towards air measurement used distilled water at 25°, which gives a base value of 72 dynes per cm. For interfacial tension measurements a water-paraffin (Nujol) system was used. Without any added surfactant, this has an interfacial tension of 52 dynes per cm. The interfacial tension measurements of the phosphonium chloride solutions were made after equal volumes of the two immiscible solvent and the given amount of salt were slowly stirred for 30 minutes to arrive at equilibrium concentrations of the salt.

[2] = Interfacial tension in water-paraffin (Nujol) system, ASTM D-971; format: physicochemical; details: 25°
Description: as §1, §2

[3] = test system: Aspergillus niger; assay: Broth dilution minimum inhibitory concentration, Aspergillus niger; format: cell-based; details: for MIC: Aspergillus niger, read-out: Minimum Inhibitory Concentration, Aspergillus niger
Description: (§3) In the primary biocidal testing of the quaternary higher dialkyl phosphonium salts, broth dilution was used as the primary method to determine the minimum salt concentrations necessary for a complete inhibition of bacterial, fungal and algal growth. Typically, 2 ml per tube of trypticase soy broth was used as nutrient medium. Usually 10 mg of the phosphonium chloride was dissolved in 5 ml ethanol and this was then diluted to 10 ml with water to give an aqueous ethanol stock solution of […] concentration. The inoculum of the microorganism was one drop of a thousandfold diluted 24 hour culture which usually contained 1000 bacteria or 10,000 fungal or algal cells. To the inoculated broth media, different amounts of the experimental chemicals were administered. The media were then observed for visible growth after a period dependent on the type of the microorganism used. Bacterial growth or inhibition was observed after one or two days. Growths of fungi and algae were checked after 7 or 14 days. Observing a series of dilutions of the experimental chemical, minimum growth inhibitory, i.e., microbiostatic, concentrations (MIC) were determined.
(§4) A number of quaternary phosphonium chlorides characterized in Table I were broth dilution tested against an important gram negative bacterial organism, Pseudomonas aeruginosa; a common gram positive bacterium, Staphylococcus aureus, and a widespread fungus, Aspergillus niger, and a common algal organism, Chlorella vulgaris.

[4] = test system: Staphylococcus aureus; assay: Broth dilution minimum inhibitory concentration, Staphylococcus aureus; format: cell-based; details: read-out: Minimum Inhibitory Concentration, Staphylococcus aureus
Description: as §3, §4

[5] = test system: Pseudomonas aeruginosa; assay: Broth dilution minimum inhibitory concentration, Pseudomonas aeruginosa; format: cell-based; details: for MIC: Pseudomonas aeruginosa, read-out: Minimum Inhibitory Concentration, Pseudomonas aeruginosa
Description: as §3, §4

[6] = test system: Chlorella vulgaris; assay: Broth dilution minimum inhibitory concentration, Chlorella vulgaris; format: cell-based; details: read-out: Minimum Inhibitory Concentration, Chlorella vulgaris
Description: as §3, §4

[7] = test system: Staph. aureus; assay: AOAC Germicidal and Sanitizer Test, Staph. aureus; format: cell-based; details: Staphylococcus aureus
From the text: (§5) To determine the effectiveness of a quaternary higher dialkyl phosphonium salt, i.e. didecyl dimethyl phosphonium chloride as a bactericide, the AOAC Germicidal and Sanitizer Test was used.

[8] = test system: mice; assay: Acute oral toxicity in Swiss albino mice; format: in vivo
Description: (§6) The acute oral toxicity of didecyl dimethyl phosphonium chloride and dioctadecyl diethyl phosphonium chloride was determined using Swiss albino mice. The median lethal toxicities found were 350 and 2840 mg salt per body kg mice, respectively.

[9] = Acute oral toxicity in Swiss albino mice; format: in vivo; details: mouse, in vivo, Swiss albino mice, read-out: median lethal toxicity, acute oral
Description: as §6

[10] = test system: Candida albicans; assay: Broth dilution minimum inhibitory concentration, Candida albicans; format: cell-based
Description: as §3
(§7) To test the breadth of the microbiocidal spectrum of didecyl dimethyl phosphonium chloride, minimum inhibitory concentrations (MIC's) were determined against several additional organisms in broth dilution tests with the following results: […]

[11] = test system: Salmonella typhosa; assay: Broth dilution minimum inhibitory concentration, Salmonella typhosa; format: cell-based; details: Salmonella enterica
Description: as §3, §7

[12] = test system: Escherichia coli; assay: Broth dilution minimum inhibitory concentration, Escherichia coli; format: cell-based
Description: as §3, §7

[13] = test system: E. coli; assay: AOAC Germicidal and Sanitizer Test, E. coli; format: cell-based; details: Escherichia coli
From the text: as §5

[14] = Solubility in toluene
[15] = test system: bacterial, fungal and algal growth; assay: Microbiocidal activity in general (broth dilution); format: cell-based
Description: as §3

MIC ([5]; 48 h, after 2 days): 250 µg/mL
SMILES: CCCCCCCC[P+](C)(CC)CCCCCCCC.[Cl-] [Example 5, Dioctyl Ethyl Methyl Phosphonium Chloride]

MIC ([3]; 336 h, after 14 days): 0.5 µg/mL
MIC ([4]; 24 h, after 1 day): 0.5 µg/mL
MIC ([5]; 24 h, after 1 day): 16 µg/mL
MIC ([6]; 336 h, after 14 days): 0.5 µg/mL
SMILES: CCCCCCCCCCCCCCCC[P+](CC)(CCCCCCCCCCCCCCCC)CC(C)C.[Cl-] [Example 7, Dihexadecyl Isobutyl Ethyl Phosphonium Chloride]
activity against Pseudomonas aeruginosa [5]: Particularly outstanding

Second part, the compound before the results:

SMILES: CCCCCCCCCCCCCCCCCC[P+](C)(C)C.[Cl-] [C18 H37 P^+ (CH3)3, octadecyl trimethyl phosphonium chloride, reference compound]
Surface Tension of Water ([1]; 0.010% salt): 42 Dynes/cm
Surface Tension of Water ([1]; 0.100% salt): 41 Dynes/cm
Interfacial Tension of Water-Nujol ([2]; 0.010% salt): 12 Dynes/cm
Interfacial Tension of Water-Nujol ([2]; 0.100% salt): 10 Dynes/cm

SMILES: CCCCCCCCCCCC[P+](C)(C)CCCCCCCCCCCC.[Cl-] [Example 1, Didodecyl Dimethyl Phosphonium Chloride]
MIC ([3]; 168 h, after 7 days): 75 µg/mL
Surface Tension of Water ([1]; 0.001% salt): 33 Dynes/cm
Surface Tension of Water ([1]; 0.0025% salt): 33 Dynes/cm
Surface Tension of Water ([1]; 0.005% salt): 32 Dynes/cm
Surface Tension of Water ([1]; 0.0075% salt): 31 Dynes/cm
Surface Tension of Water ([1]; 0.010% salt): 31 Dynes/cm
Surface Tension of Water ([1]; 0.100% salt): 29 Dynes/cm
MIC ([4]; 24 h, after 1 day): 1 µg/mL
activity against Pseudomonas aeruginosa [5]: no significant activity
MIC ([5]; 24 h, after 1 day): 2500 µg/mL
MIC ([6]; 168 h, after 7 days): 8 µg/mL
Interfacial Tension of Water-Nujol ([2]; 0.001% salt): 3 Dynes/cm
Interfacial Tension of Water-Nujol ([2]; 0.0025% salt): 3 Dynes/cm
Interfacial Tension of Water-Nujol ([2]; 0.005% salt): 3 Dynes/cm
Interfacial Tension of Water-Nujol ([2]; 0.0075% salt): 3 Dynes/cm
Interfacial Tension of Water-Nujol ([2]; 0.010% salt): 3 Dynes/cm
Interfacial Tension of Water-Nujol ([2]; 0.100% salt): 2 Dynes/cm

SMILES: CCCCCCCCCC[P+](C)(C)CCCCCCCCCC.[Cl-] [Example 3, Didecyl Dimethyl Phosphonium Chloride]
killing at 25 ppm ([7]; read-out: Reduction of live Bacterial Organisms in Distilled Water): 100%
killing at 25 ppm ([7]; read-out: Reduction of live Bacterial Organisms in water of 200 ppm Hardness): 100%
MIC ([3]; 336 h): 0.25 µg/mL
minimum inhibitory concentration against Aspergillus niger relative to didodecyl dimethyl phosphonium chloride ([3]; didecyl versus didodecyl compound (Seq. No. 4)): three hundred times smaller
MIC ([4]; 48 h): 0.5 µg/mL
activity against Pseudomonas aeruginosa [5]: Particularly outstanding
MIC ([5]; 24 h): 16 µg/mL
level of oral toxicity [8]: medium level of oral toxicity
LD50 [9]: 350 mg/kg
MIC ([6]; 336 h): 0.125 µg/mL
MIC [10]: 0.25 µg/mL
MIC [11]: 8 µg/mL
MIC [12]: 0.5 µg/mL
killing at 25 ppm ([13]; 200 ppm hardness, read-out: Reduction of live Bacterial Organisms in water of 200 ppm Hardness): 99.9%
killing at 25 ppm ([13]; distilled water, read-out: Reduction of live Bacterial Organisms in Distilled Water): 100%

SMILES: CCCCCCCC[P+](C)(C)CCCCCCCC.[Cl-] [Example 4, Dioctyl Dimethyl Phosphonium Chloride]
MIC ([3]; 336 h, after 14 days): 7.5 µg/mL
MIC ([4]; 48 h, after 2 days): 0.5 µg/mL
MIC ([5]; 24 h, after 1 day): 250 µg/mL
MIC ([6]; 336 h, after 14 days): 4 µg/mL

SMILES: CCCCCCCCCCCC[P+](CC)(CCCCCCCCCCCC)CC(C)C.[Cl-] [Example 6, Didodecyl Isobutyl Ethyl Phosphonium Chloride]
solubility in toluene [14]: highly soluble in toluene
MIC ([3]; 336 h, after 14 days): 1 µg/mL
MIC ([4]; 24 h, after 1 day): 0.5 µg/mL
activity against Pseudomonas aeruginosa [5]: Particularly outstanding
MIC ([5]; 24 h, after 1 day): 16 µg/mL
MIC ([6]; 336 h, after 14 days): 0.5 µg/mL

SMILES: CCCCCCCCCCCCCCCCCC[P+](CC)(CC)CCCCCCCCCCCCCCCCCC.[Cl-] [Example 8, Dioctadecyl Diethyl Phosphonium Chloride]
microbiocidal activity [15]: not highly active microbiocidally
MIC ([3]; 336 h): 15 µg/mL
MIC ([4]; 48 h): 15 µg/mL
MIC ([5]; 48 h): 500 µg/mL
level of oral toxicity [8]: essential lack of oral toxicity
LD50 [9]: 2840 mg/kg
MIC ([6]; 336 h): 7.5 µg/mL

From patent publication US4188380A, “Surface active quaternary higher dialkyl phosphonium salt biocides and intermediates” (Exxon Research & Engineering Co., priority 1976, dated 1980)
